Measured values reported in patent US11117919B2, “Icariside compound, preparation method thereof, and application thereof” (FOSHAN GOLDEN HEALTH TECHNOLOGY CO., LTD., priority 2015, dated 2021).

What was measured:
[1] = tested on: S180 ascites tumor of mice; assay: Inhibition of S180 tumor growth in mice; conditions: 60 mg/Kg i.p., 10 days
Experimental: NIH mice used for the tests were about 18-22 grams and divided into 10 mice per group. The liquid (0.2 ml) of S180 ascites tumor of mice was inoculated subcutaneously into the armpit region of mice. The next day after the inoculation, each group of mice were injected intraperitoneally: (1) physiological saline group; (2) solvent control group (DMSO); (3) positive control group [cyclophosphamide 60 mg/(kg·d)]; (4) low-dose group 1: icariside I 2 mg/(kg·d); (5) low-dose group 2: icariside I 5 mg/(kg·d); (6) middle-dose group: icariside I 10 mg/(kg·d); (7) high-dose group: icariside I 20 mg/(kg·d). After administration for 10 continuous days, the administration was stopped and on the next day, the mice were weighed and sacrificed with tumor mass stripped and weighed. The physiological saline group and solvent group were used as a control for calculation of tumor inhibition rate.

[2] = tested on: human peripheral blood mixed lymphocytes; assay: IFN-γ production in mixed lymphocyte culture (MLC) reaction; type: cell-based; conditions: final concentration 1000 ng/ml, 120 h
Experimental: Effect of icariside I on promotion of γ-interferon (interferon-gamma, IFN-γ) production by human peripheral blood mixed lymphocytes during culture (an experimental model mimicking enhancing immunity in human body).
(1) Preparation of human peripheral blood mononuclear cells (PBMCs): following the method in Example 5 (2), peripheral blood PBMCs from two normal human were prepared.
Cell concentrations of freshly isolated peripheral blood mononuclear cells (PBMCs) were adjusted to […] with RPMI1640 complete medium. Then, lymphocytes from two healthy human with equal volumes were mixed to maintain a total cell concentration of […]. Different concentrations (in a gradient) of or no icariside I were added thereto (with final concentration of 100 ng/ml, 1000 ng/ml) followed by fully mixing. Then the cells after stimulation were seeded and cultured in a 96-well round-bottom culture plate. The cell concentration per well was maintained at 2×10^5/ml (200 μl/well) and was incubated at 37° C. with 5% CO2 for 120 h in an incubator. The levels of cytokine IFN-γ were detected.
According to the method stated in Example 5 (4), the γ-interferon generated from human peripheral blood mixed lymphocyte culture (MLC) was detected.
Equal cell concentrations of lymphocytes from healthy human were mixed cultured for five days (120 h). The pharmaceutical icariside I was added (in a gradient of different pharmaceutical concentrations) or not added. […] Among them, the human lymphocyte A control is a group of samples containing only one kind of human lymphocyte, while human lymphocyte B control is a group of samples containing two kinds of human lymphocytes, that is, a control group in which two kinds of human lymphocytes were mixed for culture without adding icariside I. The concentrations of icariside I added were 0.1 and 1 μg/ml respectively. *P<0.05; **P<0.01. […]
Cell concentrations of freshly isolated peripheral blood mononuclear cells (PBMCs) were adjusted to 5×10^5/ml with RPMI1640 complete medium. […] The level of cytokine IFN-γ produced was then detected.

[3] = tested on: human peripheral blood mononuclear cells (PBMCs); assay: Immunological screening model: IFN-γ produced in human PBMCs; type: cell-based
Excerpt: The present inventors have long been researching the active components in traditional Chinese herbal medicine and their applications in immunotherapy. The present inventors have established an immunological test model based on determination of the level of IFN-γ produced in human peripheral blood mononuclear cells (PBMCs). By this model, compounds having promotion (or inhibition) effects on human peripheral blood mononuclear cells (PBMCs) to produce γ-interferon can be screened out from chemical components from various sources including traditional Chinese herbal medicine, medicinal plants and so on. Since the γ-Interferon is an important protein (cytokine) in human body's immune system to resist attacks from diseases, its production level in body directly relates to the body's immunity. Therefore, the model is an ideal tool to screen and find functional pharmaceuticals for improving human immunity.
In addition, all the results and achievements of the present invention are based on the very effective screening model established by the present inventors. Therefore, a further objective of the present invention is to provide an experimental model for screening substances having impacts (either enhance or inhibit) on immunity. […] Finally, by using ELISA techniques, the levels of IFN-γ produced in the culture were measured at different incubation time. […]

O=P1(N(CCCl)CCCl)NCCCO1 (stereo not drawn) [cyclophosphamide, reference compound]
change of body weight (g) [1]: +4.5 g
tumor inhibition rate (%) with physiological saline group as control [1]: 42.3%
tumor inhibition rate (%) with solvent group as control [1]: 55.2%
weight of tumor (x ± SD, g) [1]: 0.6 ± 0.06 g

COc1ccc(-c2oc3c(CC=C(C)C)c(O[C@@H]4O[C@H](CO)[C@@H](O)[C@H](O)[C@H]4O)cc(O)c3c(=O)c2O[C@@H]2O[C@@H](C)[C@H](O)[C@@H](O)[C@H]2O)cc1 [icariin, reference compound]
ability to promote human γ-interferon production in mixed lymphocyte culture [2]: almost no effect

CC(C)=CCc1c(OC2OC(CO)C(O)C(O)C2O)cc(O)c2c(=O)c(O)c(-c3ccc(O)cc3)oc12 (stereo not drawn) [icariside C]
effect in promoting PBMCs to generate IFN-γ [3]: significant effect
